Measurements published in patent publication US20250250229A1, “ARYLTHIO DERIVATIVES WITH PHARMACOLOGICAL ACTIVITY” (IRIDEA S.R.L., priority 2022, published 2025).

Experiments:
[1] = system: rat aorta rings; experiment: Ex vivo assay of anti-angiogenic activity on rat aorta rings (VEGF-induced sprouting); assay type: cell-based; settings: VEGF 30 ng/mL, compound 100 μM, counted after 6 days' incubation; VEGF alone 17 ± 4
Protocol: Ex Vivo Assays of Anti-Angiogenic Activity on Rat Aorta Rings
Thoracic aortas obtained from 5- to 10-week-old male rats were cut into rings measuring about 1 mm. The rings were placed on the base of a 24-well plate (positioning the luminal axis parallel to the base of the well), and incubated with a fibrin-polymerising solution. After 5 min, VEGF (30 ng/mL) was added to the wells in an appropriate culture medium in the presence or absence of the compounds according to the invention at the concentration of 100 μM. The medium was changed three times a week as from day 3. The angiogenic response was measured by counting the number of new vessels that sprouted over time (Table 1). The endothelial filaments were counted after 6 days' incubation.

[2] = system: neutrophil and macrophage recruitment; experiment: In vivo anti-inflammatory activity test, P. aeruginosa RP73 lung infection, BALF cell analysis; design: species or system C57Bl/6N mice; settings: 12 mg/kg subcutaneous daily, BALF six days after infection, compared with carrier only
Protocol: In Vivo Anti-Inflammatory Activity Test Immunocompetent C57Bl/6N male mice (8-10 weeks) were infected with strains of P. aeruginosa RP73 (4-6×10^5 CFU, Colony Forming Units), incorporated in agar microbeads. The microbeads were prepared by following the procedures described in the literature (Bayes H K, Ritchie N, Irvine S, Evans T J. A murine model of early Pseudomonas aeruginosa lung disease with transition to chronic infection. Sci Rep. 2016 Nov. 2; 6:35838. doi: 10.1038/srep35838), and they were administered to the mice by intratracheal injection. Subcutaneous administration of the compounds according to the invention at the concentration of 12 mg/kg, or of the carrier, was conducted on the mice 18 hours before inoculation of the bacterium, and repeated daily for 6 days. The general state of health of the mice was analysed once or twice a day throughout the duration of the experiment. Six days after infection, the mice were euthanised by carbon dioxide inhalation. Bronchoalveolar lavage fluid analysis (BALF) indicated a significant reduction in the number of neutrophils in the treated mice compared with those treated with the carrier only.

[3] = system: chorioallantoic membrane (CAM); experiment: In vivo assay on chorioallantoic membrane (CAM), VEGF165-induced neovascularisation; design: species or system hen; settings: day 14, VEGF165 alone = 100
Protocol: In Vivo Assays on Chorioallantoic Membrane (CAM)
42 fertilised hens' eggs were disinfected with a 20% ethanol solution and incubated at a temperature of 37-38° C. and a humidity of 40-60% in a rotary egg incubator. The eggs were positioned horizontally and incubated for the next 11 days to promote embryo development.
On day 11, the position of the CAM was identified by candling for 36 eggs, the air chamber was removed, and slits made in the shell in order to position sterile paper filters saturated with the effectors at different concentrations (V=2.5 uL) on the CAM. On day 14, CAMs were photographed with a stereomicroscope (Carl Zeiss Vision GmbH). Quantitative analysis was conducted (count of vessels leading from the filter) by skeletonizing the images and using AngioTool64 0.6a software, and the percentage of neovascularisation at the various concentrations of effectors was determined (Table 2).

[4] = VEGF165 0.1 ug + compound 0.0001 ug on filter
[5] = VEGF165 0.1 ug + compound 0.001 ug on filter
[6] = VEGF165 0.1 ug + compound 0.01 ug on filter
[7] = VEGF165 0.1 ug + compound 0.1 ug on filter
[8] = VEGF165 0.1 ug + compound 1 ug on filter

CC(C)(C)c1cc(NC(=O)CCCN=C(N)N)c(SCCc2ccccc2)c(NC(=O)CCCN=C(N)N)c1 [IRI-N-19025, N,N′-(5-(tert-butyl)-2-(phenethylthio)-1,3-phenylene)bis(4-((diaminomethylene)amino)butanamide)]
Endothelial filaments (standardised for the number of rings) [1]: 1.9 ± 1.1 | Macrophages (%) [2]: −8 ± 5% | Neutrophils (%) [2]: −55 ± 9% | Total cells (%) [2]: −50 ± 10%

CC(C)(C)c1cc(NC(=O)CCN=C(N)N)c(SCCc2ccccc2)c(NC(=O)CCN=C(N)N)c1 [IRI-N-19001, N,N′-(5-(tert-butyl)-2-(phenethylthio)-1,3-phenylene)bis(3-((diaminomethylene)amino)propanamide)]
Endothelial filaments (standardised for the number of rings) [1]: 1.0 ± 0.4 | Macrophages (%) [2]: −10 ± 3% | Neutrophils (%) [2]: −61 ± 5% | Total cells (%) [2]: −55 ± 12% | Vascularisation (%) [3, 4]: 45% | Vascularisation (%) [3, 5]: 37% | Vascularisation (%) [3, 6]: 33% | Vascularisation (%) [3, 7]: 26% | Vascularisation (%) [3, 8]: 10%

N,N′-(2-(benzylthio)-5-(tert-butyl)-1,3-(phenylene)bis(3-((diaminomethylene)amino) propanamide) [IRI-N-19002]
Endothelial filaments (standardised for the number of rings) [1]: 1.4 ± 0.5 | Macrophages (%) [2]: −9 ± 4% | Neutrophils (%) [2]: −60 ± 6% | Total cells (%) [2]: −54 ± 9% | Vascularisation (%) [3, 4]: 48% | Vascularisation (%) [3, 5]: 42% | Vascularisation (%) [3, 6]: 36% | Vascularisation (%) [3, 7]: 31% | Vascularisation (%) [3, 8]: 13%

CC(C)(C)c1cc(NC(=O)CCN=C(N)N)c(SCc2ccc3ccccc3c2)c(NC(=O)CCN=C(N)N)c1 [IRI-N-19004, N,N′-(5-(tert-butyl)-2-((naphthalen-2-ylmethyl)thio)-1,3-phenylene)bis(3-((diaminomethylene)amino)propanamide)]
Endothelial filaments (standardised for the number of rings) [1]: 1.2 ± 0.5 | Macrophages (%) [2]: −5 ± 4% | Neutrophils (%) [2]: −58 ± 8% | Total cells (%) [2]: −56 ± 8% | Vascularisation (%) [3, 4]: 38% | Vascularisation (%) [3, 5]: 33% | Vascularisation (%) [3, 6]: 24% | Vascularisation (%) [3, 7]: 19% | Vascularisation (%) [3, 8]: 8%
